The record followed here is patent US7300930B2, “Therapeutic acridone and acridine compounds” (Cancer Research Technology Limited, priority 2000, dated 2007).

A word on the IC50: it is the midpoint of a concentration-inhibition curve.

One data set deals with telomerase (Homo sapiens, UniProt O14746). Description: Modified telomeric repeat amplification protocol (TRAP) assay, cell-free. The note with it: extracts from A2780 cells, tested as salts, read-out: telIC50 (Telomerase Inhibitory Activity). In kind it is biochemical. Here is the method: The ability of compounds to inhibit telomerase in a cell-free assay was assessed with a modified TRAP assay using extracts from exponentially growing A2780 human ovarian carcinoma cells. The TRAP assay was performed in 2 steps: (a) telomerase-mediated extension of the forward primer (TS: 5′-AATCCGTCGAGCAGAGTT (SEQ ID NO:3), Oswel Ltd., Southampton, UK) contained in a 40 µL reaction mix comprising TRAP buffer (20 mM Tris-HCl (pH 8.3), 68 mM KCl, 1.5 mM MgCl2, 1 mM EGTA, 0.05% v/v Tween 20), 0.05 μg bovine serum albumin, 50 μM of each deoxynucleotide triphosphate, 0.1 μg TS primer, and 3 μCi of [α-^32P]dCTP (Amersham plc, UK). Protein (40 ng or 20 ng) was then incubated with the reaction mix+agent (acid addition and quaternary dimethiodide salts) at final concentrations of up to 50 μM for 20 min at 25° C. A lysis buffer (no protein) control, heat-inactivated protein control, and 50% protein (20 ng or 10 ng) control were included in each assay; and (b) while heating at 80° C. in a PCR block of a thermal cycler (Hybaid, UK) for 5 min to inactivate telomerase activity, 0.1 μg of reverse CX primer (3′-[…]-5′ (SEQ ID NO:4)) and 2 Units of Taq DNA polymerase (“red hot”, Advanced Biotechnologies) were added. A 3-step PCR was then performed: 94° C. for 30 s, 50° C. for 30 s, and 72° C. for 1 min for 31 cycles. Telomerase-extended PCR products in the presence or absence of compounds were then determined either by electrophoretic separation using 8% w/w acrylamide denaturing gels and analysis by phosphorimaging or autoradiography, or by harvesting on Whatman filters (25 mm glass microfibre) and analysis by liquid scintillation counting.
Chain of telomerase (O14746 whole entry): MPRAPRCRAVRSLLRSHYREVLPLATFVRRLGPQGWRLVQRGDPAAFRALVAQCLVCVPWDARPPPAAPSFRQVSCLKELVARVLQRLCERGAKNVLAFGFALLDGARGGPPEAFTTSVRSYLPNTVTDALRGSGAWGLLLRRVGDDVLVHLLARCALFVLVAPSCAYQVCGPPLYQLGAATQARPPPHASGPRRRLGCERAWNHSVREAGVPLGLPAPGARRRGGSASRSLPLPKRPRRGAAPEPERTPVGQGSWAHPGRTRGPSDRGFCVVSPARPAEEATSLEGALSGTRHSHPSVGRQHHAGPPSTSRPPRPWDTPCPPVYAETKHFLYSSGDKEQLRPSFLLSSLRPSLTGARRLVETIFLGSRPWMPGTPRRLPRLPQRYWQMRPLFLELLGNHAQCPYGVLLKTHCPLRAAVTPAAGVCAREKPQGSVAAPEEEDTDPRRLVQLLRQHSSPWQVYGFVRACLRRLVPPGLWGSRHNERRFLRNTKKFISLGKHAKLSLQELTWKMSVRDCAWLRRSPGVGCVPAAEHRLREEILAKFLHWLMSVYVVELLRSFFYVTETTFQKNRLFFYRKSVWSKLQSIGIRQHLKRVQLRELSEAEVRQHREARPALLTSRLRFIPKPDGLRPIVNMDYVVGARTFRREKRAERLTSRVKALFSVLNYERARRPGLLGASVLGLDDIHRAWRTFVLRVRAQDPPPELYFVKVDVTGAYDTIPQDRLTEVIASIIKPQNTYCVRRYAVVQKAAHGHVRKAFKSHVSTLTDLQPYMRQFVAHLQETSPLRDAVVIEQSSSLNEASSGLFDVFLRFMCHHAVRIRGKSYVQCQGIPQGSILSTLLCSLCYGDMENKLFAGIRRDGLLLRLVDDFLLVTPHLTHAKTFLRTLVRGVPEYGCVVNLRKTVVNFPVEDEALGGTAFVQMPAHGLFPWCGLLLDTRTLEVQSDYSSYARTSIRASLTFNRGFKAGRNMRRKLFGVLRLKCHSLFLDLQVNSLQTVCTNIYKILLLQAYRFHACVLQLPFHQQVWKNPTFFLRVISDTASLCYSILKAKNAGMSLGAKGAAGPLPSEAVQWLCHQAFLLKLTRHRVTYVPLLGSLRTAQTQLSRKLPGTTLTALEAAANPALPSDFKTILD

A short description of data set [1]: Growth inhibition, sulforhodamine B (SRB) assay, A2780. The note with it: human, A2780 ovarian carcinoma cells, A2780, 96 hr incubation, tested as salts, read-out: Cytotoxicity - IC50 A2780. In kind it is cell-based. Here is the method:
(§1) Growth inhibition was measured in three human ovarian carcinoma cell lines (A2780, CH1, and SKOV-3) and one human cervix carcinoma cell line (A431) using the sulforhodamine B (SRB) assay. Briefly, between 3000 and 6000 cells were seeded into the wells of 96-well microtiter plates and allowed to attach overnight. Compounds (acid addition and quaternary dimethiodide salts) were dissolved at 500 μM in water and immediately added to wells in quadruplicate at final concentrations of 0.05, 0.25, 1, 5 and 25 μM. Following an incubation period of 96 hr, remaining cells were fixed with ice-cold 10% w/v trichloroacetic acid (30 min) and stained with 0.4% SRB in 1% v/v acetic acid (15 min). Mean absorbance at 540 nm for each drug concentration was expressed as a percentage of the control untreated well absorbance, and IC50 values (concentration required to inhibit cell growth by 50%) were determined for each agent.
On the technique in general: Sulforhodamine B stains cellular protein and so reports cell mass.

Data set [2] is described as follows: Growth inhibition, sulforhodamine B (SRB) assay, CH1. In kind it is cell-based. Conditions: human, CH1 ovarian carcinoma cells, CH1, 96 hr incubation, tested as salts, read-out: Cytotoxicity - IC50 CH1. How it is done: as §1
Data set [3] in a line: Growth inhibition, sulforhodamine B (SRB) assay, SKOV-3. In kind it is cell-based. Conditions: human, SKOV-3 ovarian carcinoma cells, SKOV-3, 96 hr incubation, tested as salts, read-out: Cytotoxicity - IC50 SKOV-3. How it is done:
as §1

Data set [4] can be described thus: Growth inhibition, sulforhodamine B (SRB) assay, A431. In kind it is cell-based. The note with it: human, A431 cervix carcinoma cells, A431, 96 hr incubation, tested as salts, read-out: Cytotoxicity - IC50 A431. How it is done: as §1

pIC50: −log10 of the molar value.

On to `CN(C)c1cccc(Nc2c3ccc(NC(=O)CCN4CCCC4)cc3nc3cc(NC(=O)CCN4CCCC4)ccc23)c1` [JH-ACI-78, N-{9-[3′-(N,N-Dimethylamino)phenylamino]}-3,6-bis(3-pyrrolidinopropionamido)acridine], for which the pIC50 on telomerase is 7.00. Also, the IC50 at 96 h came to 7900 nM in data set [1], 2000 nM in data set [2], 4000 nM in data set [3] and 2000 nM in data set [4].

In the case of `O=C(CCN1CCCC1)Nc1ccc2c(NC3CCCCC3)c3ccc(NC(=O)CCN4CCCC4)cc3nc2c1` [JH-ACI-82, N-[9-(Cyclohexylamino)]-3,6-bis(3-pyrrolidinopropionamido)acridine], the pIC50 at telomerase is 7.05. Also, the IC50 at 96 h in data set [1] came out at 12500 nM; in data set [2], 2800 nM; in data set [3], 1100 nM; in data set [4] it was 2500 nM.

Take `COCCNc1c2ccc(NC(=O)CCN3CCCC3)cc2nc2cc(NC(=O)CCN3CCCC3)ccc12` [JH-ACI-86, N-[9-(2-Methoxy-ethylamino)]-3,6-bis(3-pyrrolidinopropionamido)acridine]: the pIC50 at telomerase is 6.85. Besides, the IC50 at 96 h came out at 10000 nM in data set [1], 3200 nM in data set [2], 17800 nM in data set [3] and 10000 nM in data set [4].

As for `O=C(CCN1CCCC1)Nc1ccc2c(NC3CCCCCC3)c3ccc(NC(=O)CCN4CCCC4)cc3nc2c1` [JH-ACI-88, N-[9-(Cycloheptylamino)]-3,6-bis(3-pyrrolidinopropionamido)acridine], at telomerase, the pIC50 was 6.68. Also, the IC50 at 96 h in data set [1] was found to be 3200 nM; in data set [2], 2800 nM; in data set [3], 9300 nM; in data set [4] it was 3200 nM.

On to `CC(=O)c1ccc(Nc2c3ccc(NC(=O)CCN4CCCC4)cc3nc3cc(NC(=O)CCN4CCCC4)ccc23)cc1` [JH-ACI-90, N-[9-(4′-Acetylphenylamino)]-3,6-bis(3-pyrrolidinopropionamido)acridine], for which the pIC50 on telomerase was 7.40. Besides, the IC50 at 96 h in data set [1] came out at 3200 nM; in data set [2], 1800 nM; in data set [3], 3400 nM; in data set [4] it was 2200 nM.

Turning to `CC1(C)CC2CC(C)(CN2CCC(=O)Nc2ccc3c(Nc4ccc(N)cc4)c4ccc(NC(=O)CCN5CC6(C)CC5CC(C)(C)C6)cc4nc3c2)C1` [JH-ACI-101, N-{9-[4′-(Amino)phenylamino]}-3,6-bis[(1,3,3-trimethyl-6-azabicyclo[3.2.1]-octanamino)propionamido]-acridine], the pIC50 on telomerase is 6.80. Also, the IC50 at 96 h in data set [1] amounted to 1600 nM; in data set [2], 2300 nM; in data set [3], 1200 nM; in data set [4] it was 2500 nM.

In the case of `CN(C)c1ccc(Nc2c3ccc(NC(=O)CCN4CC5(C)CC4CC(C)(C)C5)cc3nc3cc(NC(=O)CCN4CC5(C)CC4CC(C)(C)C5)ccc23)cc1` [JH-ACI-103, N-{9-[4′-(N,N-Dimethylamino)phenylamino]}-3,6-bis[(1,3,3-trimethyl-6-azabicyclo[3.2.1]-octanamino)propionamido]-acridine], the pIC50 at telomerase was 6.85. In addition, the IC50 at 96 h was 1000 nM in data set [1], 3200 nM in data set [2], 2000 nM in data set [3] and 2500 nM in data set [4].

On to `Nc1ccc(Nc2c3ccc(NC(=O)CCN4CCCC4)cc3nc3ccc(NC(=O)CCN4CCCC4)cc23)cc1` [JH-ACI-105, N-{9-[4′-(Amino)phenylamino]}-2,6-bis(3-pyrrolidinopropionamido)acridine], for which the pIC50 on telomerase is 7.10. Further, the IC50 at 96 h was over 25000 nM in data set [1], 15800 nM in data set [2], over 25000 nM in data set [3] and over 25000 nM in data set [4].

For the molecule `CN(C)CCC(=O)Nc1ccc2nc3ccc(NC(=O)CCN(C)C)cc3c(O)c2c1` [JH-ACO-22, 2,7-Bis(3-dimethylaminopropionamido)-9(10H)-acridone], the pIC50 at telomerase was 5.72. The IC50 at 96 h in data set [1], in data set [2], in data set [3] and in data set [4] was over 25000 nM each time.

`CN1CCN(CCC(=O)Nc2ccc3[nH]c4ccc(NC(=O)CCN5CCN(C)CC5)cc4c(=O)c3c2)CC1` [JH-ACO-28, 2,7-Bis[3-(4′-N-methyl)piperizinopropionamido]-9(10H)-acridone]: the pIC50 at telomerase is 6.18. Moreover, the half-inhibitory concentration (IC50) at 96 h in data set [1], in data set [2], in data set [3] and in data set [4] was over 25000 nM each time.

For the molecule `CC1(C)CC2CC(C)(CN2CCC(=O)Nc2ccc3c(=O)c4ccc(NC(=O)CCN5CC6(C)CC5CC(C)(C)C6)cc4[nH]c3c2)C1` [JH-ACO-32, 3,6-Bis[(1,3,3-trimethyl-6-azabicyclo[3.2.1]-octanamino)propionamido]-9(10H)-acridone], the pIC50 on telomerase is 5.75. For the same molecule, the IC50 at 96 h in data set [1] was 1900 nM; in data set [2], 2500 nM; in data set [3], 2500 nM; in data set [4], 10000 nM.

For the molecule `O=C(CCN1CCCC1)Nc1ccc2c(NC3CC3)c3ccc(NC(=O)CCN4CCCC4)cc3nc2c1` [JM-ACI-14, N-[9-(Cyclopropylamino)]-3,6-bis(3-pyrrolidinopropionamido)acridine], the pIC50 on telomerase was 7.30. Further, the IC50 at 96 h was 19000 nM in data set [1], over 25000 nM in data set [2], over 25000 nM in data set [3] and over 25000 nM in data set [4].

Consider `CC1CCCCN1CCC(=O)Nc1ccc2nc3ccc(NC(=O)CCN4CCCCC4C)cc3c(O)c2c1` (centres unmarked) [JM-ACO-07, 2,7-Bis[3-(2-methylpiperidino)propionamido]-9(10H)-acridone], for which the pIC50 at telomerase is 5.71. The IC50 at 96 h in data set [1], in data set [2], in data set [3] and in data set [4] was over 25000 nM each time.

In the case of `O=C(CCN1CCC(O)CC1)Nc1ccc2nc3ccc(NC(=O)CCN4CCC(O)CC4)cc3c(O)c2c1` [JM-ACO-09, 2,7-Bis[3-(4-hydroxypiperidino)propionamido]-9(10H)-acridone], the pIC50 on telomerase is 5.80. For the same molecule, the IC50 at 96 h in data set [1], in data set [2], in data set [3] and in data set [4] was over 25000 nM throughout.

Regarding `O=C(CCN1CCCCC1CO)Nc1ccc2[nH]c3ccc(NC(=O)CCN4CCCCC4CO)cc3c(=O)c2c1` (centres unmarked) [JM-ACO-12, 2,7-Bis[3-(2-hydroxymethylpiperidino)propionamido]-9(10H)-acridone], the pIC50 at telomerase was 5.63. In addition, the IC50 at 96 h in data set [1], in data set [2], in data set [3] and in data set [4] was over 25000 nM in each case.

For the molecule `CN(C)CCNc1c2ccc(NC(=O)CCN3CCCC3)cc2nc2cc(NC(=O)CCN3CCCC3)ccc12` [SB-ACI-11, N-[9-(N,N-Dimethylethylenediamino)]-3,6-bis(3-pyrrolidinopropionamido)acridine], the pIC50 on telomerase was 7.74. The IC50 at 96 h was over 25000 nM in data set [1], 17000 nM in data set [2], over 25000 nM in data set [3] and over 25000 nM in data set [4].
